# Measurements published in patent US4308210A, “Nanaomycin B and therapeutic compositions containing same” (The Kitasato Institute, priority 1976, dated 1981).
# Key:
# Format in all cases: cell-based
# [1] = test system: Xanthomonas oryzae N-5824; experiment: microbe, parasite or virus in culture; details: N5824, 48 h, pH 7
# Trichophyton schoenleini = experiment: Antimicrobial spectrum, MIC, potato agar; details: 96 h, potato agar (pH 6.4, 4 days, 27° C.)
# [2] = test system: fungi (Test Organisms of Table 4); experiment: Antifungal activity, comparison in words (Table 4)
# Mycoplasma gallisepticum = experiment: Growth inhibition of Mycoplasma gallisepticum (text summary of Table 1); details: Mycoplasmoides gallisepticum, 192 h, read-out: growth inhibited at a concentration
# Procedure: H Hokken PPLO agar (pH 7.8, 8 days, 37° C.)
# E Eiken PPLO agar (pH 7.8, 8 days, 37° C.)
# MIC Minimal inhibitory concentration
# Trichophyton purpureum = experiment: Antimicrobial spectrum, MIC, potato agar; details: 96 h, potato agar (pH 6.4, 4 days, 27° C.)
# Candida albicans = experiment: Antimicrobial spectrum, MIC, potato agar; details: 96 h, potato agar (pH 6.4, 4 days, 27° C.)
smiles,measurement,setting,value
CC1OC(CC(=O)O)CC2C(=O)c3cccc(O)c3C(=O)C12O (centres unmarked) [Nanaomycin B],MIC,[1],125 µg/mL
same,MIC,Trichophyton schoenleini,3.1 µg/mL
same,antifungal activity compared with deoxyfrenolicin,[2],slightly inferior
same,antifungal activity compared with ethylkalafunginate (ethylkalamycinate),[2],superior
same,antifungal activity when the pH of the medium is higher than 6.4,[2]; pH of medium higher than 6.4,stronger antifungal activity
same,MIC,Mycoplasma gallisepticum,≤ 0.1 µg/mL
same,MIC,Trichophyton purpureum,25 µg/mL
same,MIC,Candida albicans,31.2 µg/mL
